Assays:
[1] = target: T1, human STING WT (R232) (Homo sapiens, UniProt Q86WV6, H232R); test: Human STING HTRF binding assay (competitive, Cisbio 64BDSTGPEG)
T1 construct: purchased Cisbio 64BDSTGPEG
In short: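 Competitive HTRF: 6His-tagged human STING WT R232 binding domain (residues 138-379) with anti-6His Cryptate antibody and d2-labeled STING ligand, 180 min at room temperature, 1% DMSO, 8 concentrations from 10 μM or 1 μM top in ~1:5 steps. HTRF ratios were calibrated to a cGAMP standard curve and IC50 obtained by 4-parameter logistic fit.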

[2] = system: STING inhibition in human whole blood (IFNα2α production); test: Human whole blood assay (HWBA): cGAMP-stimulated IFNα2α production; type: cell-based; details: Homo sapiens
In short: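 Na-citrate human whole blood from ≥3 healthy donors, preincubated 60 min at room temperature with compound (8 concentrations, top 10 μM, ~1:5 steps, 0.1% DMSO), then stimulated with cGAMP and incubated 22 h at 37 °C. Plasma IFNα2α measured by MSD immunoassay; % control versus stimulated/unstimulated wells, IC50 by 4-parameter logistic fit.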

T1 sequence (Q86WV6 138-379 H232R): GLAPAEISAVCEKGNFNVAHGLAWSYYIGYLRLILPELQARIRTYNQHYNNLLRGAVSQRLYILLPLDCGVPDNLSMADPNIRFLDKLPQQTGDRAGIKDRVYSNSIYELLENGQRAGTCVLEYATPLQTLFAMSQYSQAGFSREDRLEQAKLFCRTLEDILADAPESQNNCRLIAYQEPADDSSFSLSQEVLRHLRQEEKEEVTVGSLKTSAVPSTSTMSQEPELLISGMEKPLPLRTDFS

IC50 [1] [nM] | IC50 [2] [nM] | SMILES
18.1 | 140 | Cc1nc2nn(CCCCN3CCN(C)CC3)cc2cc1-n1nc(-c2cccc3nn(C[C@H](O)c4ccccc4)cc23)c(C(C)C)c1C [Example 45, (1R)-2-[4-(5-methyl-1-{6-methyl-2-[4-(4-methylpiperazin-1-yl)butyl]-2H-pyrazolo[3,4-b]pyridin-5-yl}-4-(propan-2-yl)-1H-pyrazol-3-yl)-2H-indazol-2-yl]-1-phenylethan-1-ol]
15.2 | 140 | Cc1nc2nn(C)cc2cc1-n1nc(-c2cccc3nn(C[C@H](O)c4ccc(F)cc4)cc23)c(C(C)C)c1C [Example 46, (1R)-2-[4-(1-{2,6-dimethyl-2H-pyrazolo[3,4-b]pyridin-5-yl}-5-methyl-4-(propan-2-yl)-1H-pyrazol-3-yl)-2H-indazol-2-yl]-1-(4-fluorophenyl)ethan-1-ol]
11.9 | 150 | Cc1c(C(C)C)c(-c2cccc3nn(C[C@H](O)c4ccccc4)cc23)nn1-c1cc2cn(C)nc2nc1C1CCOC1 (stereo partly drawn) [Example 47, (1R)-2-(4-{5-methyl-1-[2-methyl-6-(oxolan-3-yl)-2H-pyrazolo[3,4-b]pyridin-5-yl]-4-(propan-2-yl)-1H-pyrazol-3-yl}-2H-indazol-2-yl)-1-phenylethan-1-ol]
22.7 | 150 | CCCn1cc2cc(-c3nc(-c4cccc5nn(CC(F)(F)c6ccccc6)cc45)c(C4CC4)n3C)c(C3CC3)nc2n1 [Example 48, 4-(5-cyclopropyl-2-{6-cyclopropyl-2-propyl-2H-pyrazolo[3,4-b]pyridin-5-yl}-1-methyl-1H-imidazol-4-yl)-2-(2,2-difluoro-2-phenylethyl)-2H-indazole]
22.2 | 160 | Cc1nc2nn(CCCN3CCOCC3)cc2cc1-n1nc(-c2cccc3nn(C[C@H](F)c4ccccc4)cc23)c(C(C)C)c1C [Example 49, 2-[(2R)-2-fluoro-2-phenylethyl]-4-(5-methyl-1-{6-methyl-2-[3-(morpholin-4-yl)propyl]-2H-pyrazolo[3,4-b]pyridin-5-yl}-4-(propan-2-yl)-1H-pyrazol-3-yl)-2H-indazole]
16.3 | 160 | Cc1c(C(C)C)c(-c2cccc3nn(C[C@H](O)c4ccccc4)cc23)nn1-c1cc2cn(C)nc2[n+]([O-])c1C1CC1 [Example 50, 6-cyclopropyl-5-(3-{2-[(2R)-2-hydroxy-2-phenylethyl]-2H-indazol-4-yl}-5-methyl-4-(propan-2-yl)-1H-pyrazol-1-yl)-2-methyl-2H-pyrazolo[3,4-b]pyridin-7-ium-7-olate]
16.8 | 170 | Cc1c(C(C)C)c(-c2cccc3nn(C[C@H](O)c4ccccc4)cc23)nn1-c1cc2cn(C)nc2nc1C1(F)CC1 [Example 51, (1R)-2-(4-{1-[6-(1-fluorocyclopropyl)-2-methyl-2H-pyrazolo[3,4-b]pyridin-5-yl]-5-methyl-4-(propan-2-yl)-1H-pyrazol-3-yl}-2H-indazol-2-yl)-1-phenylethan-1-ol]
19.9 | 180 | CO[C@@H](Cn1cc2c(-c3nn(-c4cc5cn(C)nc5nc4C)c(C)c3C(C)C)cccc2n1)c1ccccc1 [Example 52, 4-(1-{2,6-dimethyl-2H-pyrazolo[3,4-b]pyridin-5-yl}-5-methyl-4-(propan-2-yl)-1H-pyrazol-3-yl)-2-[(2R)-2-methoxy-2-phenylethyl]-2H-indazole]
28.6 | 190 | Cc1c(C(C)C)c(-c2cccc3nn(C[C@H](O)c4ccccc4)cc23)nn1-c1cc2cn(C)nc2nc1C1CCC1 [Example 53, (1R)-2-[4-(1-{6-cyclobutyl-2-methyl-2H-pyrazolo[3,4-b]pyridin-5-yl}-5-methyl-4-(propan-2-yl)-1H-pyrazol-3-yl)-2H-indazol-2-yl]-1-phenylethan-1-ol]
86.9 | 200 | Cc1c(C(C)C)c(-c2cccc3nn(C[C@H](O)c4ccccc4)cc23)nn1-c1cc2cn(C)nc2nc1CC1CC1 [Example 54, (1R)-2-(4-{1-[6-(cyclopropylmethyl)-2-methyl-2H-pyrazolo[3,4-b]pyridin-5-yl]-5-methyl-4-(propan-2-yl)-1H-pyrazol-3-yl}-2H-indazol-2-yl)-1-phenylethan-1-ol]
3.7 | 200 | Cn1cc2cc(-c3nc(-c4cccc5nn(C[C@H](O)c6ccc(O)cc6)cc45)c(C4CC4)n3C)c(C3CC3)nc2n1 [Example 55, 4-[(1R)-2-[4-(5-cyclopropyl-2-{6-cyclopropyl-2-methyl-2H-pyrazolo[3,4-b]pyridin-5-yl}-1-methyl-1H-imidazol-4-yl)-2H-indazol-2-yl]-1-hydroxyethyl]phenol]
18.1 | 210 | Cc1nc2nn(CC3CC3)cc2cc1-n1nc(-c2cccc3nn(C[C@H](O)c4ccccc4)cc23)c(C(C)C)c1C [Example 56, (1R)-2-(4-{1-[2-(cyclopropylmethyl)-6-methyl-2H-pyrazolo[3,4-b]pyridin-5-yl]-5-methyl-4-(propan-2-yl)-1H-pyrazol-3-yl}-2H-indazol-2-yl)-1-phenylethan-1-ol]
24.9 | 230 | CC(C)c1c(-c2cccc3nn(C[C@H](O)c4ccccc4)cc23)nc(-c2cc3cn(C)nc3nc2C(F)(F)F)n1C [Example 57, (1R)-2-(4-{1-methyl-2-[2-methyl-6-(trifluoromethyl)-2H-pyrazolo[3,4-b]pyridin-5-yl]-5-(propan-2-yl)-1H-imidazol-4-yl}-2H-indazol-2-yl)-1-phenylethan-1-ol]
15.8 | 230 | COC(C)c1nc2nn(C)cc2cc1-n1nc(-c2cccc3nn(C[C@H](O)c4ccccc4)cc23)c(C(C)C)c1C (stereo partly drawn) [Example 58, (1R)-2-(4-{1-[6-(1-methoxyethyl)-2-methyl-2H-pyrazolo[3,4-b]pyridin-5-yl]-5-methyl-4-(propan-2-yl)-1H-pyrazol-3-yl}-2H-indazol-2-yl)-1-phenylethan-1-ol]
23.9 | 240 | CCCc1nc2nn(C)cc2cc1-n1nc(-c2cccc3nn(C[C@H](O)c4ccccc4)cc23)c(C(C)C)c1C [Example 60, (1R)-2-[4-(5-methyl-1-{2-methyl-6-propyl-2H-pyrazolo[3,4-b]pyridin-5-yl}-4-(propan-2-yl)-1H-pyrazol-3-yl)-2H-indazol-2-yl]-1-phenylethan-1-ol]
19.1 | 300 | Cc1nc2nn(Cc3ncnn3C)cc2cc1-n1nc(-c2cccc3nn(C[C@H](O)c4ccccc4)cc23)c(C(C)C)c1C [Example 62, (1R)-2-[4-(5-methyl-1-{6-methyl-2-[(1-methyl-1H-1,2,4-triazol-5-yl)methyl]-2H-pyrazolo[3,4-b]pyridin-5-yl}-4-(propan-2-yl)-1H-pyrazol-3-yl)-2H-indazol-2-yl]-1-phenylethan-1-ol]
39.8 | 300 | Cc1nc2nn(C)cc2cc1-n1nc(-c2cccc3nn(C[C@H](OCC4CC4)c4ccccc4)cc23)c(C(C)C)c1C [Example 63, 2-[(2R)-2-(cyclopropylmethoxy)-2-phenylethyl]-4-(1-{2,6-dimethyl-2H-pyrazolo[3,4-b]pyridin-5-yl}-5-methyl-4-(propan-2-yl)-1H-pyrazol-3-yl)-2H-indazole]
7.6 | 300 | Cc1c(C(C)C)c(-c2cccc3nn(C[C@H](O)c4ccccc4)cc23)nn1-c1cc2cn(C)nc2nc1C(F)F [Example 64, (1R)-2-(4-{1-[6-(difluoromethyl)-2-methyl-2H-pyrazolo[3,4-b]pyridin-5-yl]-5-methyl-4-(propan-2-yl)-1H-pyrazol-3-yl}-2H-indazol-2-yl)-1-phenylethan-1-ol]
16.9 | 320 | Cc1nc2nn(C)cc2cc1-n1nc(-c2cccc3nn(CCc4ccc(OCCN(C)C)cc4)cc23)c(C(C)C)c1C [Example 65, [2-(4-{2-[4-(1-{2,6-dimethyl-2H-pyrazolo[3,4-b]pyridin-5-yl}-5-methyl-4-(propan-2-yl)-1H-pyrazol-3-yl)-2H-indazol-2-yl]ethyl}phenoxy)ethyl]dimethylamine]
8 | 320 | Cc1nc2nn(C)cc2cc1-n1nc(-c2cccc3nn(C[C@H](OCCCCO)c4ccccc4)cc23)c(C(C)C)c1C [Example 66, 4-[(1R)-2-[4-(1-{2,6-dimethyl-2H-pyrazolo[3,4-b]pyridin-5-yl}-5-methyl-4-(propan-2-yl)-1H-pyrazol-3-yl)-2H-indazol-2-yl]-1-phenylethoxy]butan-1-ol]
10.8 | 330 | Cc1nc2nn(CC(O)CO)cc2cc1-n1nc(-c2cccc3nn(C[C@H](O)c4ccccc4)cc23)c(C(C)C)c1C (stereo partly drawn) [Example 67, 3-[5-(3-{2-[(2R)-2-hydroxy-2-phenylethyl]-2H-indazol-4-yl}-5-methyl-4-(propan-2-yl)-1H-pyrazol-1-yl)-6-methyl-2H-pyrazolo[3,4-b]pyridin-2-yl]propane-1,2-diol]
17.7 | 350 | Cn1cc2cc(-c3nc(-c4cccc5nn(C[C@H](O)c6ccc(OCC7CCOCC7)cc6)cc45)c(C4CC4)n3C)c(C3CC3)nc2n1 [Example 68]
7.5 | 360 | Cn1cc2cc(-c3nc(-c4cccc5nn(C[C@H](O)c6ccc(OC7COC7)cc6)cc45)c(C4CC4)n3C)c(C3CC3)nc2n1 [Example 69, (1R)-2-[4-(5-cyclopropyl-2-{6-cyclopropyl-2-methyl-2H-pyrazolo[3,4-b]pyridin-5-yl}-1-methyl-1H-imidazol-4-yl)-2H-indazol-2-yl]-1-[4-(oxetan-3-yloxy)phenyl]ethan-1-ol]

Source: patent publication US20260265244A1, “HETEROCYCLIC COMPOUNDS AS STING ANTAGONISTS” (Boehringer Ingelheim International GmbH, priority 2022, published 2026)
